The values below come from patent US7875599B2, “C-17-heteroaryl steroidal CYP17 inhibitors/antiandrogens, in vitro biological activities, pharmacokinetics and antitumor activity” (University of Maryland, priority 2005, dated 2011).

Structures are written as SMILES. Where two headings read alike, the source gives them in different places.

The subject of data set [1] is LNCaP cells. The data set can be described thus: LNCaP cell growth, WST-1 viability assay. Conditions: Homo sapiens, LNCaP, 168 h, read-out: IC50, inhibition of DHT-induced LNCaP cell proliferation, 1 nM DHT, 7 days, WST-1. (Formazan colour is commonly taken as a measure of viable cells.)
Method: To determine the effect of novel compounds on cell proliferation, cells are transferred into steroid-free medium three days prior to the start of the experiments. Steroid-free medium consisted of phenol red free RPMI supplemented with 5% dextran-coated, charcoal treated serum, and 1% penicillin/streptomycin solution. Growth studies are then performed by plating cells (3×10^4) in 24-well multi-well dishes (Corning, Inc. Corning, N.Y.). After a 24 hours attachment period, the medium is aspirated and replaced with steroid-free medium containing vehicle or the indicated concentration of DHT (1 nM) and compounds (0.1 μM-10 μM). Control wells are treated with vehicle (ethanol). This medium is changed every three days and the number of viable cells is compared by WST-1 [4-[3-(4-iodophenyl)-2-(4-nitrophenyl)-2H-5-tetrazolio]-1,3-benzene disulfonate] assay on the seventh day. Following incubation of cells for the above-mentioned time, 10% WST-1 solution is added to each well and incubated at 37° C. for three hours. Following incubation, plates are slightly shaken and immediately read at 450 nm with a scanning multi-well spectrophotometer. All results represent the average of a minimum of three wells. Additional control consists of medium alone with no cells.
Cells were grown in steroid-free medium before plating.
For data set [2], the target named is T1, human 5α-reductase type 1 (Homo sapiens, UniProt P18405).
T1 sequence (P18405 1-259): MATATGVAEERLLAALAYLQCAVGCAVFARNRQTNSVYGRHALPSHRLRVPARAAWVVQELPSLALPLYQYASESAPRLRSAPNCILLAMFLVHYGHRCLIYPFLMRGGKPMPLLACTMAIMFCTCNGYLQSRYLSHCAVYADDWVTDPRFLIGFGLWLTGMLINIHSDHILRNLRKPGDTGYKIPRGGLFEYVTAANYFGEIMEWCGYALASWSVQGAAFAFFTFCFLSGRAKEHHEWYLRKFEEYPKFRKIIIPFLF
The data set can be described thus: Human 5α-reductase type 1 assay (DU-145 cell line).

The nature of data set [3]: Pharmacokinetics after single s.c. dose in male SCID mice. The format is in vivo, mouse. Conditions: for peak plasma level: mice (as printed in summary b4); for half-life: male, SCID. The source says:
Pharmacokinetics of 5 and 6 and metabolism of 5: The pharmacokinetic properties in male SCID mouse for the two lead compounds, 5 and 6 are studied following our recently described procedure for other CYP17 inhibitors (Nnane et al., “Pharmacokinetic profile of 3β-hydroxy-17-(1H-123-triazol-1-yl)androsta-5,16-diene (VN/87-1), a potent androgen synthesis inhibitor in mice”, J. Steroid Biochem. Molec. Biol., 2001, 71, 145-152; and Handratta et al., “Potent CYP17 inhibitors: improved syntheses, pharmacokinetics and anti-tumor activity in the LNCaP human prostate cancer model”, J. Steroid Biochem. Molec. Biol., 2004, 92, 155-165.
Pharmacokinetic Studies All animal studies are performed according to the guidelines and approval of the Animal Care Committee of the University of Maryland School of Medicine, Baltimore. Male SCID mice weighing 20-22 gm (8-10 weeks old) obtained from NCI, Frederick, Md., USA are maintained in a controlled environment of about 25° C., 50% relative humidity and 12 h of light and 12 h of dark cycles and allowed free access to food and water. Compounds 5 and 6 are formulated in 40% β-cyclodextrin in water and a single subcutaneous dose is given to mice. The animals are sacrificed at various times up to 6 h after drug administration and blood was obtained by cardiac puncture under light halothane (Ayerst, New York, N.Y., USA) anesthesia.
HPLC Analysis: Chromatographic separations and quantification of the steroids and the appropriate internal standards are achieved by a reverse phase HPLC method on a Waters® Novapak® C18 column (3.9×150 mm) protected by Waters® guard cartridge packed with pellicle C18 as previously described. Briefly, the HPLC system used in this study consisted of Waters® solvent delivery system, Waters® controller (Milford, Mass.), coupled to a Waters® 717^plus autosampler and a Waters® 996 photodiode array detector operated at 242.7 nm. The mobile phase composition is Water/MeOH/CH3CN (35:35:30, v/v/v+200 μl, of Et3N and 0.77 g of NH4OAc per 1000 mL of mobile phase) at a flow rate of 1.0 mL/min. The HPLC analysis is performed at ambient temperature and data acquisition and management ius achieved with a Waters® millennium chromatography manager.
Sample Preparation: Test tubes containing mouse plasma (200 μL), 5 or 6 and VN/85-1 (internal standard, 10 μL of 100 μg/mL), are extracted with diethyl ether (2×2 mL) using a vortex mixer for 3 minutes and centrifuged at 3000 g for 5 min. The organic layers are evaporated to dryness under a gentle stream of air. The residue is reconstituted in an aliquot of the mobile phase (100 μL) and filtered using 0.2 μm Teflon filters before HPLC analysis. Calibration Curve and HPLC Assay Validation: The calibration curves for 5 in plasma and tissue and for 6 in plasma are constructed by spiking varying amounts of the compounds into extraction tubes (duplicate) containing plasma (200 μL) and tissue preparations (200 μL) from untreated animals to give final concentrations of 0.1-100.0 μg/mL. Appropriate blank extraction tubes are also prepared and an aliquot of the internal standard is added into each extraction tube to give a final concentration of 5 μg/ml. The calibration samples are taken through the sample preparation procedure as described above. An aliquot of the reconstituted extract (50 μl) is injected into the HPLC system and the ratio of the peak areas for each analyte to that of the internal standard are plotted against concentrations of 5 or 6. The precision and accuracy of the assays are determined from a range of known concentrations of the inhibitors in blank plasma and taken through the HPLC procedure. The study is repeated on three separate occasions.
Data Analysis: Pharmacokinetic calculations are performed as previously described. The non-compartmental pharmacokinetic calculations are performed using WinNOnlin (Scientific Consulting Inc.). […]

Data set [4] addresses T2, CYP17 (Homo sapiens, UniProt P05093).
T2 sequence (P05093 1-508): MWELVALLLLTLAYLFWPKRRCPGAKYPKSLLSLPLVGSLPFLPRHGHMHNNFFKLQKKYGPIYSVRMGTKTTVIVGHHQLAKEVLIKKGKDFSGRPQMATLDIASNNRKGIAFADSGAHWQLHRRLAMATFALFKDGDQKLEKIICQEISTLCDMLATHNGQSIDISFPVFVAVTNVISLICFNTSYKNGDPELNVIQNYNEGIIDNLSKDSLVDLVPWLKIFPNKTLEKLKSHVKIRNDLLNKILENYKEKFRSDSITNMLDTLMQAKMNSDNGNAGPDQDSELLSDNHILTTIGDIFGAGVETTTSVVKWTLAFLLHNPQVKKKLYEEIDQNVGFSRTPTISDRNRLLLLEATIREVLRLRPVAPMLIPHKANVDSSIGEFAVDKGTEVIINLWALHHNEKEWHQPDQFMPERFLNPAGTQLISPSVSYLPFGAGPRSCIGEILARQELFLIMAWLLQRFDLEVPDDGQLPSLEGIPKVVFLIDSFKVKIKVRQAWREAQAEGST
The data set can be described thus: UV-vis difference spectroscopy, binding to heme iron of CYP17.

Setting [5] is: mouse, plasma, sc, 50 mg/kg, 50 mg/kg s.c., male SCID mice.

The term inhibition denotes the drop in the measured response relative to a control, in per cent. For orientation: AUC means the area under the concentration-time curve, a measure of exposure. As a reminder, the Cmax is the highest concentration seen after dosing. One may read the MRT as the average time that molecules of a dose stay in the body. In general, Tmax refers to the time at which the peak concentration occurs. What is called half-life is the time needed for the level to fall by half in the phase considered. High values mean slow loss, low ones fast loss. Consider `C[C@]12CC[C@H](O)CC1=CC[C@@H]1[C@@H]2CC[C@]2(C)C(n3cnc4ccccc43)=CC[C@@H]12` [Compound 5, 3β-Hydroxy-17-(1H-benzimidazol-1-yl)androsta-5,16-diene], for which the IC50 in data set [1] was found to be 6 µM. Further, the inhibition at 10 µM in data set [2] (read-out: 5α-Reductase type 1 % inhibition at 10 μM) was 4%. Further, in data set [3] (50 mg/kg s.c., male SCID mice), the AUC was 1440.00 ± 60.23 µg·min/mL, the Cmax turned out to be 16820 ± 370 ng/mL, the MRT came to 65.40 ± 0.60 min and the Tmax was found to be 30.0 min. The Vd in data set [3] (50 mg/kg s.c., male SCID mice) is on record as 2098.99 ± 4. mL/kg. The same compound returned a peak plasma level in data set [3] (50 mg/kg s.c.) of 16.82 ng/mL. In data set [3] (100 mg/kg s.c., male SCID mice), the area under the curve (AUC) amounted to 1813.94 ± 10.94 µg·min/mL, the Cmax came to 32230 ± 340 ng/mL, the MRT amounted to 60.46 ± 1.54 min and the Tmax is 30.00 ± 0.0 min. The compound also gave a Vd in data set [3] (100 mg/kg s.c., male SCID mice) of 113276.39 ± 26.71 mL/kg. The compound further registered a half-life in data set [3] (setting [5]) of 44.2 min. Further, the half-life in data set [3] (mouse, plasma, sc, 100 mg/kg, 100 mg/kg s.c., male SCID mice) turned out to be 36.6 ± 1.6 min. Besides, the “clearance from the systemic circulation” value in data set [3] (s.c. administration, male SCID mice) turned out to be 33.1023 mL/min/kg. In addition, the “type of difference spectrum induced” value in data set [4] is reported as “type II difference spectrum”.

In general, melting point refers to the temperature, or range, at which the solid turns liquid. `C[C@]12CCC(=O)C=C1CC[C@@H]1[C@@H]2CC[C@]2(C)C(n3cnc4ccccc43)=CC[C@@H]12` [Compound 6, 17-(1H-benzimidazol-1-yl)androsta-4,16-diene-3-one] returned a melting point of 201 to 204 °C. This compound gave an IC50 in data set [2] of 0.77 µM. In data set [3] (50 mg/kg s.c., male SCID mice), this compound displayed a Kel of 0.0183 ± 0.004 min⁻¹ and a Vd of 4207.24 ± 6.25 mL/kg. This compound also showed a t1/2 in data set [3] (50 mg/kg s.c., male SCID mice, plasma) of 37.93 ± 1.15 min. The same compound had a peak plasma level in data set [3] (50 mg/kg s.c.) of 5.15 ng/mL. Moreover, in data set [3] (in vivo pharmacokinetics in mice), the “metabolism of the compound detected in plasma” value is “did not detect any metabolism(s)”. In data set [3] (setting [5]), this compound had a half-life of 39.9 min. In data set [3] (mouse, plasma, sc, 50 mg/kg s.c., male SCID mice, read-out: AUC (converted)), the AUC is 647 µg·min/mL. The highest concentration (Cmax) in data set [3] (mouse, plasma, sc, 50 mg/kg s.c., male SCID mice, read-out: Cmax) turned out to be 5150 ± 90 ng/mL. In addition, the MRT in data set [3] (mouse, plasma, sc, 50 mg/kg s.c., male SCID mice, read-out: MRT (converted)) is 80 min. Besides, the Tmax in data set [3] (mouse, plasma, sc, 50 mg/kg s.c., male SCID mice, read-out: Tmax (converted)) is 60 min. Besides, in data set [3] (s.c. administration, mice), the “time after administration at which compound was not detected in plasma” value is 8 h.
